This is an account of results in US20200390742A1, “CLINICALLY EFFICACIOUS ANTI-METHANOGENIC COMPOSITIONS AND USES” (Cedars-Sinai Medical Center, priority 2016, published 2020).

Series [1] has as its system IBS-C patients. Particulars: published trial, 12 weeks; drug arm; cited from earlier work.
Series [2] concerns methane production by stool samples from IBS-C patients. The experiment in a line: Methane production by human stool in vitro. In kind it is cell-based. An excerpt:
Data are change from baseline (ΔCH4 ppm) in headspace methane. […] Error bars are SD. P values are significance of change from baseline (paired t-test).
The second principle, without wishing to be bound by theory, is to reduce the pre-systemic conversion of lovastatin lactone to the β-hydroxyacid metabolite. […] Conversion of lovastatin lactone to β-hydroxyacid occurs in stomach acid and through the action of plasma, intestinal and liver esterases; some conversion may also be catalysed by intestinal bacteria.
The potential methane-reducing effect of lovastatin lactone concentrations in the stool of healthy volunteers was estimated by comparison of stool concentrations to lovastatin lactone concentrations used to inhibit methane production in stool samples from an IBS-C patient in vitro.

For series [3] the following is noted: pylorus-ligated rats, within 30 minutes; cited from earlier work.
The subject of series [4] is human and rat fecal bacterial enzyme fractions. The settings on record: 12 h incubation; cited from earlier work.
The nature of series [5]: physchem. Particulars: for solubility: Solubility (room temp). An excerpt: Lovastatin was produced, analyzed and released using methodology known in the art.
For series [6] the following is noted: cited from earlier work.
In series [7] the test system is M. smithii. Description: M. smithii colonized high-fat diet rats, qPCR of bowel segments. In kind it is in vivo, Sprague-Dawley rats. The protocol:
The rats were assessed for increased M. smithii by qPCR before and after the diet, and then divided into 3 groups. […] Each group was gavaged daily for 10 days. Three day stool collections were performed to assess average stool wet weight and daily variability prior to commencing the high fat diet, after 7 weeks of high-fat diet, and the final days of the lovastatin gavage (still on high-fat diet). On day 10 of the gavage, rats were euthanized and DNA was extracted from contents of ligated bowel segments (duodenum, jejunum, ileum, cecum and left colon). qPCR was performed using primers for total luminal bacteria and M. smithii.

For series [8] the following is noted: cited from earlier work. This is another data set of the same source.
Series [9] in a line: Binary stress testing of lovastatin with formulation excipients (HPLC). The settings on record: alone, over a range of conditions.
Protocol: The compatibility of lovastatin drug substance with formulation excipients was evaluated in binary stress testing studies where 1:1 mixtures of lovastatin and each excipient were stored for 7 days under different conditions of temperature and relative humidity (RH). Samples were analyzed by HPLC (based on USP methods) at day 0 and day 7.
[10] abbreviates: stool samples from IBS-C patients in vitro.
Setting [11] is: Cecum, 1.5 mg/rat daily for 10 days.
Setting [12] is: Duodenum, 1.5 mg/rat gavage daily for 10 days.
[13] abbreviates: Jejunum, 1.5 mg/rat daily for 10 days.
Where [14] appears, read: Left Colon, 1.5 mg/rat daily for 10 days.

In brackets after ≈: the same amount, converted by molar mass. Where two headings read alike, the source gives them in different places. Marks after values point to notes of the source that are not given here. Peptide text beside a SMILES is read from it.

Consider `C[C@@H]1NC(=O)[C@@H]2CCCN2C(=O)[C@H](CC(N)=O)NC(=O)[C@@H]2CSSC[C@H](N)C(=O)N[C@H]3CSSC[C@H](NC1=O)C(=O)N[C@@H]([C@@H](C)O)C(=O)NCC(=O)N[C@H](C(=O)N[C@@H](Cc1ccc(O)cc1)C(=O)O)CSSC[C@H](NC(=O)[C@H](Cc1ccc(O)cc1)NC(=O)[C@H](CCC(=O)O)NC3=O)C(=O)N2` [Linaclotide] (HELM PEPTIDE1{C.C.E.Y.C.C.N.P.A.C.T.G.C.Y}$PEPTIDE1,PEPTIDE1,1:R3-6:R3|PEPTIDE1,PEPTIDE1,2:R3-10:R3|PEPTIDE1,PEPTIDE1,5:R3-13:R3$$$V2.0), for which, in series [1], the “Abdominal Pain Response, % Subjects” value is 49.5 (36.0) %; the “Bloating Response, % Subjects” value is given as 43.2 (26.8) %; the “CSBM Response, % Subjects” value is on record as 48.2 (26.1) %; the “Diarrhea Incidence, % Subjects” value is 19.3 (2.8) %. Further, the “Overall Response, % Subjects” value in series [1] is listed as 33.6 (17.4) %.

Turning to `CC[C@H](C)C(=O)O[C@H]1C[C@@H](C)C=C2C=C[C@H](C)[C@H](CC[C@@H]3C[C@@H](O)CC(=O)O3)[C@H]21` [Lovastatin], the “inhibition of methane AUC0-270” value in [2] (0.2 mg/g stool, regression) is 85-90%. Also, the “methane AUC0-270 as percentage of the control value” in series [2] (0.2 mg/g stool, regression) was 10-15%. Moreover, the “reduction of methane production” value in series [2] (lovastatin lactone 0.04 mg/g stool, human stool in vitro) is on record as around 60%. In addition, the “inhibition of methane production” value in series [2] (lovastatin lactone 0.21-0.25 mg/g stool, in vitro) is on record as around 90%; in [2] (setting [10]), “only effective statin inhibitor”. Further, the “intragastric dose exiting the gastric juice” value in series [3] is around 30%. Moreover, in series [4], the “loss of lovastatin lactone” value is 8-19%. Also, the “Solubility (room temp)” value in [5] was “methanol 28 mg/mL”. Besides, the values for the solubility in [5] (organic solvent or mixture) and in [5] (water) were 16000 µg/mL (≈ 39.6 mM) and 0.4 µg/mL (≈ 0.000989 mM), respectively. Moreover, the “absorption of orally-administered dose” value in series [6] (human subjects, immediate release dosage form) is around 31%. Further, the “M. smithii/Total Bacteria” value is 0.20 in series [7] (setting [11]); 1.30 in [7] (setting [12]); 0.19* in series [7] (Ileum, 1.5 mg/rat daily for 10 days, listed as Lactone); “reduced” in series [7] (Ileum, 1.5 mg/rat daily for 10 days, listed as lovastatin lactone); 0.12 in series [7] (setting [13]); 0.0029 in series [7] (setting [14]). Further, in [8], the “pre-portal hydrolysis in vivo after oral administration” value was around 10%. In series [9], the “stability in binary stress testing” value is recorded as “stable”.

Consider `CCCCC(F)(F)[C@@]1(O)CC[C@H]2[C@@H](CC(=O)[C@@H]2CCCCCCC(=O)O)O1` [Lubiprostone], for which, in series [1], the “Abdominal Pain Response, % Subjects” value is 36.7 (25.2) %; the “Bloating Response, % Subjects” value is 32.0 (25.1) %; the “Overall Response, % Subjects” value is listed as 26.3 (15.3) %.

On to `CC(C)C[C@H](NC(=O)[C@@H]1CSSC[C@@H]2NC(=O)[C@H](CC(C)C)NC(=O)[C@H](CCC(=O)O)NC(=O)[C@@H](NC(=O)[C@H](CCC(=O)O)NC(=O)[C@H](CC(=O)O)NC(=O)[C@@H](N)CC(N)=O)CSSC[C@H](NC(=O)[C@H](C)NC(=O)[C@H](C(C)C)NC(=O)[C@H](CC(N)=O)NC(=O)[C@H](C(C)C)NC2=O)C(=O)N[C@@H]([C@@H](C)O)C(=O)NCC(=O)N1)C(=O)O` [Plecanatide] (HELM PEPTIDE1{N.D.E.C.E.L.C.V.N.V.A.C.T.G.C.L}$PEPTIDE1,PEPTIDE1,4:R3-12:R3|PEPTIDE1,PEPTIDE1,7:R3-15:R3$$$V2.0), for which, in series [1], the “Diarrhea Incidence, % Subjects” value is 4.3 (1.0) % and the “Overall Response, % Subjects” value is on record as 25.7 (15.9) %.

As for `CN1Cc2c(Cl)cc(Cl)cc2[C@H](c2cccc(S(=O)(=O)NCCOCCOCCNC(=O)NCCCCNC(=O)NCCOCCOCCNS(=O)(=O)c3cccc([C@@H]4CN(C)Cc5c(Cl)cc(Cl)cc54)c3)c2)C1` [Tenapanor], in series [1], the “Abdominal Pain Response, % Subjects” value is 65.5 (48.3) %; the “Bloating Response, % Subjects” value was 59.5 (41.6) %; the “CSBM Response, % Subjects” value was 60.7 (33.7) %; the “Diarrhea Incidence, % Subjects” value is on record as 11.2 (0.0) %. Further, the “Overall Response, % Subjects” value in series [1] is recorded as 50.0 (23.6) %.

Turning to `CC(C)c1c(C(=O)Nc2ccccc2)c(-c2ccccc2)c(-c2ccc(F)cc2)n1CC[C@@H](O)C[C@@H](O)CC(=O)O` [atorvastatin], the “inhibition of methane production” value in series [2] (setting [10]) is recorded as “ineffective”.

Turning to `CC[C@H](C)C(=O)O[C@H]1C[C@@H](C)C=C2C=C[C@H](C)[C@H](CC[C@@H](O)C[C@@H](O)CC(=O)O)[C@H]21` [lovastatin β-hydroxyacid], in series [2] (setting [10]), the “inhibition of methane production” value is listed as “ineffective”. Besides, in series [3], the “intragastric dose exiting the gastric juice” value is listed as around 30%. In addition, the “absorption of orally-administered dose” value in [6] (human, in vivo, po) is 82-100%. Also, the “M. smithii/Total Bacteria” value in series [7] (setting [11]) came to 0.14; in [7] (setting [12]), 1.41; in series [7] (setting [13]) it was 0.29; in [7] (setting [14]), 0.0024.

For `CC(C)c1nc(N(C)S(C)(=O)=O)nc(-c2ccc(F)cc2)c1/C=C/[C@@H](O)C[C@@H](O)CC(=O)O` [rosuvastatin], in series [2] (setting [10]), the “inhibition of methane production” value is on record as “ineffective”.

What is called solubility is the dissolved amount per volume that the medium holds.
